Legend:
[1] = tested on: vanZ1 (CD1240) transcription in 630Δerm; assay: vanZ1 expression by qRT-PCR during growth in antimicrobials; assay type: cell-based, Clostridioides difficile
C. difficile 630Δerm = assay: Minimum inhibitory concentration; assay type: cell-based, Clostridioides difficile; details: with or without LL-37 (Supl. Table 1)

Molecule	increase of vanZ1 expression during growth in LL-37 [1]	teicoplanin MIC of 630Δerm whether or not LL-37 was present (C. difficile 630Δerm)
CC[C@H](C)[C@H](NC(=O)[C@H](CCCCN)NC(=O)[C@H](CCC(=O)O)NC(=O)[C@H](CCCCN)NC(=O)[C@H](CO)NC(=O)[C@H](CCCCN)NC(=O)[C@H](CCCNC(=N)N)NC(=O)[C@H](Cc1ccccc1)NC(=O)[C@H](Cc1ccccc1)NC(=O)[C@H](CC(=O)O)NC(=O)CNC(=O)[C@H](CC(C)C)NC(=O)[C@@H](N)CC(C)C)C(=O)NCC(=O)N[C@@H](CCCCN)C(=O)N[C@@H](CCC(=O)O)C(=O)N[C@@H](Cc1ccccc1)C(=O)N[C@@H](CCCCN)C(=O)N[C@@H](CCCNC(=N)N)C(=O)N[C@H](C(=O)N[C@H](C(=O)N[C@@H](CCC(N)=O)C(=O)N[C@@H](CCCNC(=N)N)C(=O)N[C@H](C(=O)N[C@@H](CCCCN)C(=O)N[C@@H](CC(=O)O)C(=O)N[C@@H](Cc1ccccc1)C(=O)N[C@@H](CC(C)C)C(=O)N[C@@H](CCCNC(=N)N)C(=O)N[C@@H](CC(N)=O)C(=O)N[C@@H](CC(C)C)C(=O)N[C@H](C(=O)N1CCC[C@H]1C(=O)N[C@@H](CCCNC(=N)N)C(=O)N[C@H](C(=O)N[C@@H](CCC(=O)O)C(=O)N[C@@H](CO)C(=O)O)[C@@H](C)O)C(C)C)[C@@H](C)CC)C(C)C)[C@@H](C)CC [LL-37]	~ 37 fold	
teicoplanin		remained unchanged

From PMC6309587 (Anaerobe, 2018)
